Among the data in ChEMBL document CHEMBL1138108, “Syntheses and evaluation of novel fatty acid-second-generation taxoid conjugates as promising anticancer agents” (Bioorg Med Chem Lett, 2006) are IC50 and Activity values, retold here.

Each structure is given as a SMILES string. Calls of active or inactive are those of the source. The calls are words filed in the database; no cut-off is given here.

One experiment has as its system MCF7S. Description: Cytotoxicity against human mammary tumor cell line MCF7-S. The format is functional, cell-based.
For a further experiment, the system named is MCF7R. Description: Cytotoxicity against human mammary tumor cell line MCF7-R. The format is functional, cell-based.
Experiment [1] relates to DLD-1. Description: Efficacy against Pgp+ human colon tumor xenograft DLD1 in SCID mice at 240 mg/kg, iv. The format is functional, organism-based. Further details: dose 240 mg/kg.
The subject of experiment [2] is DLD-1. Description: Efficacy against Pgp+ human colon tumor xenograft DLD1 in SCID mice at 75 mg/kg, iv. The format is functional, organism-based. Further details: dose 75 mg/kg.
Another experiment deals with A121. Description: Efficacy against Pgp- human ovarian tumor xenograft A121 in SCID mice at 90 mg/kg, iv. (In general: In xenograft studies the graft and the host belong to different species.)

What is called IC50 is the concentration at which inhibition is half-maximal. Higher therefore signals a need for much substance. With `CCC(=O)O[C@H]1C(=O)[C@@]2(C)[C@H]([C@H](OC(=O)c3ccccc3)[C@]3(O)C[C@H](OC(=O)[C@H](O)[C@H](CC(C)C)NC(=O)OC(C)(C)C)C(C)=C1C3(C)C)[C@]1(OC(C)=O)CO[C@@H]1C[C@@H]2O`, the IC50 in the experiment with MCF7S is 0.35 nM; with MCF7R it was 5.1 nM. On to `CC(=O)O[C@@]12CO[C@@H]1C[C@H](O)[C@@]1(C)C(=O)[C@H](OC(=O)C3CC3)C3=C(C)[C@@H](OC(=O)[C@H](O)[C@H](C=C(C)C)NC(=O)OC(C)(C)C)C[C@@](O)([C@@H](OC(=O)c4ccccc4)[C@H]21)C3(C)C`, for which the result with DLD-1 [1] was Active. The IC50 was found to be 0.2 nM in the experiment with MCF7S and 3.9 nM with MCF7R. Regarding `CC/C=C\C/C=C\C/C=C\C/C=C\C/C=C\C/C=C/CCC(=O)O[C@@H](C(=O)O[C@H]1C[C@@]2(O)[C@@H](OC(=O)c3ccccc3)C3[C@](C)(C(=O)[C@H](OC(C)=O)C(=C1C)C2(C)C)[C@@H](O)C[C@H]1OC[C@@]31OC(C)=O)[C@@H](NC(=O)c1ccccc1)c1ccccc1` (some centres not stated), the result in the experiment on DLD-1 [1] was inactive. For `CCC(=O)O[C@H]1C(=O)[C@@]2(C)[C@H]([C@H](OC(=O)c3ccccc3)[C@]3(O)C[C@H](OC(=O)[C@H](O)[C@H](C=C(C)C)NC(=O)OC(C)(C)C)C(C)=C1C3(C)C)[C@]1(OC(C)=O)CO[C@@H]1C[C@@H]2O`, the result in the experiment on DLD-1 [1] was Active. For the same compound, the concentration for half-maximal inhibition (IC50) with MCF7S stood at 0.18 nM; in the experiment on MCF7R it was 4 nM. In the case of `CC(=O)O[C@@]12CO[C@@H]1C[C@H](O)[C@@]1(C)C(=O)[C@H](O)C3=C(C)[C@@H](OC(=O)[C@H](O)[C@@H](NC(=O)OC(C)(C)C)c4ccccc4)C[C@@](O)([C@@H](OC(=O)c4ccccc4)[C@H]21)C3(C)C` [DOCETAXEL], the results for the IC50 in the experiment on MCF7S and in the experiment on MCF7R were 1 nM and 723 nM, respectively. Consider `CC(=O)O[C@H]1C(=O)[C@@]2(C)[C@H]([C@H](OC(=O)c3ccccc3)[C@]3(O)C[C@H](OC(=O)[C@H](O)[C@@H](NC(=O)c4ccccc4)c4ccccc4)C(C)=C1C3(C)C)[C@]1(OC(C)=O)CO[C@@H]1C[C@@H]2O` [PACLITAXEL], for which the IC50 was 1.7 nM with MCF7S and 550 nM in the experiment on MCF7R.

For `CC(=O)O[C@@]12CO[C@@H]1C[C@H](O)[C@@]1(C)C(=O)[C@H](OC(=O)N(C)C)C3=C(C)[C@@H](OC(=O)[C@H](O)[C@H](C=C(C)C)NC(=O)OC(C)(C)C)C[C@@](O)([C@@H](OC(=O)c4ccccc4)C12)C3(C)C` (some centres not stated), the IC50 was determined as 0.13 nM in the experiment with MCF7S and 7.4 nM in the experiment with MCF7R.

Turning to `CC(=O)O[C@@]12CO[C@@H]1C[C@H](O)[C@@]1(C)C(=O)[C@H](OC(=O)C3CC3)C3=C(C)[C@@H](OC(=O)[C@H](O)[C@H](CC(C)C)NC(=O)OC(C)(C)C)C[C@@](O)([C@@H](OC(=O)c4ccccc4)C12)C3(C)C` (some centres not stated), the IC50 came to 0.51 nM with MCF7S and 7.9 nM with MCF7R. The corresponding values for `COC(=O)O[C@H]1C(=O)[C@@]2(C)C([C@H](OC(=O)c3ccccc3)[C@]3(O)C[C@H](OC(=O)[C@H](O)[C@H](C=C(C)C)NC(=O)OC(C)(C)C)C(C)=C1C3(C)C)[C@]1(OC(C)=O)CO[C@@H]1C[C@@H]2O` (some centres not stated) are 0.14 nM and 9.7 nM. As for `CC/C=C\C/C=C\C/C=C\CCCCCCCC(=O)O[C@@H](C(=O)O[C@H]1C[C@@]2(O)[C@@H](OC(=O)c3ccccc3)C3[C@](C)(C(=O)[C@H](OC(=O)CC)C(=C1C)C2(C)C)[C@@H](O)C[C@H]1OC[C@@]31OC(C)=O)[C@H](C=C(C)C)NC(=O)OC(C)(C)C` (some centres not stated), the result in the experiment with DLD-1 [2] was Active.

In the case of `CC/C=C\C/C=C\C/C=C\C/C=C\C/C=C\C/C=C/CCC(=O)O[C@@H](C(=O)O[C@H]1C[C@@]2(O)[C@@H](OC(=O)c3ccccc3)C3[C@](C)(C(=O)[C@H](OC(=O)N(C)C)C(=C1C)C2(C)C)[C@@H](O)C[C@H]1OC[C@@]31OC(C)=O)[C@H](C=C(C)C)NC(=O)OC(C)(C)C` (some centres not stated), in the experiment on A121, the outcome was Active. As to `CCCCC/C=C\C/C=C\CCCCCCCC(=O)O[C@@H](C(=O)O[C@H]1C[C@@]2(O)[C@@H](OC(=O)c3ccccc3)C3[C@](C)(C(=O)[C@H](OC(=O)CC)C(=C1C)C2(C)C)[C@@H](O)C[C@H]1OC[C@@]31OC(C)=O)[C@H](C=C(C)C)NC(=O)OC(C)(C)C` (some centres not stated), the result in the experiment on DLD-1 [2] was Active.
